Tested on: wounds following necrosis and sloughing of spontaneous tumours
Test: Resolution of wounds after sloughing of spontaneous tumours treated by intratumoural injection, equine
Assay type: in vivo
Details: for Average days from tumour slough to wound closure: Equine
Description: Veterinary clinical data on speed of resolution of wounds that formed following necrosis and sloughing of spontaneous tumours that had been treated by intratumoural injection of Compound 1 (30% 1,2 propanediol formulation at either 0.5 or 1.0 mg/mL concentration) in twenty-four companion animals are summarised in Table 17.
Note that all wounds were managed as open wounds and no bandaging, dressings, lotions or concomitant medications were used in any of these cases.

CC=C(C)C(=O)OC1C(C)C2(O)C(C3OC3(CO)C(O)C3(O)C(=O)C(C)=CC32)C2C(C)(C)C12OC(=O)C(C)CC (centres unmarked) [Compound 1, 12-tigloyl-13-(2-methylbutanoyl)-6,7-epoxy-4,5,9,12,13,20-hexahydroxy-1-tigliaen-3-one]
No. of horses: Tissue deficit at wound site, Minor (5 to 10% tissue deficit across the original wound area): 0 | No. of horses: Tissue deficit at wound site, Nil or minimal (<5% tissue deficit across the original wound area): 6 | No. of horses: Tissue deficit at wound site, Substantial (>10% tissue deficit across the original wound area): 0 | Average days from tumour slough to wound closure (wound size class 0.25 to 9 cm^2, 4 cases): 20 ± 12 days | Average days from tumour slough to wound closure (wound size class 9 to 50 cm^2, 2 cases): 53 ± 22 days | No. of horses: Hair regrowth on wound area, Sparse (Hair covers <50% of original wound area): 0 | No. of horses: Hair regrowth on wound area, Partial (Hair covers >50% of original wound area): 1 | No. of horses: Hair regrowth on wound area, Full (Hair covers >95% of original wound area): 5 | No. of horses: Scarring & skin thickening, Minor (Localised scar covering <10% of original wound area): 1 | No. of horses: Scarring & skin thickening, Substantial (Scarring covering >10% of original wound area): 1 | No. of horses: Scarring & skin thickening, Nil or minimal (Scarring not obvious visually or by touch): 4 | No. of horses: Change in hair colour, No (healed wound site): 3 | No. of horses: Change in hair colour, Yes (healed wound site): 3 | No. of horses: Skin pigmentation, Hyperpigmentation (healed wound site): 1 | No. of horses: Skin pigmentation, Hypopigmentation (healed wound site): 1 | No. of horses: Skin pigmentation, Normal (healed wound site): 3 | No. of horses: Skin pigmentation, Patchy (healed wound site): 1

— patent publication US10822317B2, “Methods and compositions for wound healing” (QBiotics Limited, priority 2013, dated 2020)
